The source made the active and inactive calls. No cut-off for these calls is given here.
Columns and labels:
[1] = biological target: T1, Short transient receptor potential channel 4 (Homo sapiens) (UniProt Q9UBN4); test: Agonist activity at human TRPC4 stably expressed in T-REx-293 cells assessed as increase in calcium flux at 10 uM by Fura-2AM dye based fluorescence plate reader assay; format: cell-based; settings: filed as agonist
T1 sequence (whole entry): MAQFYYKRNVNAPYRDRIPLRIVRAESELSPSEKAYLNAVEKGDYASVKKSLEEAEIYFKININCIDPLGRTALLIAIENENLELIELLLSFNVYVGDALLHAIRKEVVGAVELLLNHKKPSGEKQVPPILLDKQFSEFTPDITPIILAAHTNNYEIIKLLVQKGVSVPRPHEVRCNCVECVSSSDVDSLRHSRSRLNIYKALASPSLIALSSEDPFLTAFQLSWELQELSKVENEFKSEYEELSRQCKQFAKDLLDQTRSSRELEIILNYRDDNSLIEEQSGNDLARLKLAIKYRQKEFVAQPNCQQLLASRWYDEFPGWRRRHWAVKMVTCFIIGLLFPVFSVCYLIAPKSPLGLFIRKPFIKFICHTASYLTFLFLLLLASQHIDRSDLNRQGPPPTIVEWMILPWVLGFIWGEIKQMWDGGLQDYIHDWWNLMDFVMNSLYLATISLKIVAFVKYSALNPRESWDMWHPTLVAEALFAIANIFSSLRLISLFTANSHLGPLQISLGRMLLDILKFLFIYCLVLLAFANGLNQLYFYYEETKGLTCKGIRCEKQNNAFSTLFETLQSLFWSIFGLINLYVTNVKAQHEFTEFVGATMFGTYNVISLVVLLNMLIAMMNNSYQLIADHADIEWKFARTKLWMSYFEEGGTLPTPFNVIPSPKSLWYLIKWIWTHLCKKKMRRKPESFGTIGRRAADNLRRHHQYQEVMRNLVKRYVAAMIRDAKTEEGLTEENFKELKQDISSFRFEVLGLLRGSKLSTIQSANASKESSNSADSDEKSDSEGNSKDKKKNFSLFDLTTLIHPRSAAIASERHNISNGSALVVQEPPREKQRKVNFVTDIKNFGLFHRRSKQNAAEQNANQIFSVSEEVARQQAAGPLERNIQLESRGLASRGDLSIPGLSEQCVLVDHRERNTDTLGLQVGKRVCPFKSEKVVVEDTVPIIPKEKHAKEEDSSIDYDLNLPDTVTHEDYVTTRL

A498 = test: Growth inhibition of human A498 cells assessed as cell growth inhibition; format: functional
UO-31 = test: Growth inhibition of human UO-31 cells assessed as cell growth inhibition; format: functional
[2] = Acute toxicity in mouse assessed as maximum tolerated dose measured for 24 hrs; settings: in vivo
[3] = biological target: T2, Short transient receptor potential channel 5 (Homo sapiens, UniProt Q9UL62); test: Agonist activity at human TRPC5 stably expressed in T-REx-293 cells assessed as increase in calcium flux by Fura-2AM dye based fluorescence plate reader assay; format: cell-based
T2 sequence (Q9UL62 whole entry): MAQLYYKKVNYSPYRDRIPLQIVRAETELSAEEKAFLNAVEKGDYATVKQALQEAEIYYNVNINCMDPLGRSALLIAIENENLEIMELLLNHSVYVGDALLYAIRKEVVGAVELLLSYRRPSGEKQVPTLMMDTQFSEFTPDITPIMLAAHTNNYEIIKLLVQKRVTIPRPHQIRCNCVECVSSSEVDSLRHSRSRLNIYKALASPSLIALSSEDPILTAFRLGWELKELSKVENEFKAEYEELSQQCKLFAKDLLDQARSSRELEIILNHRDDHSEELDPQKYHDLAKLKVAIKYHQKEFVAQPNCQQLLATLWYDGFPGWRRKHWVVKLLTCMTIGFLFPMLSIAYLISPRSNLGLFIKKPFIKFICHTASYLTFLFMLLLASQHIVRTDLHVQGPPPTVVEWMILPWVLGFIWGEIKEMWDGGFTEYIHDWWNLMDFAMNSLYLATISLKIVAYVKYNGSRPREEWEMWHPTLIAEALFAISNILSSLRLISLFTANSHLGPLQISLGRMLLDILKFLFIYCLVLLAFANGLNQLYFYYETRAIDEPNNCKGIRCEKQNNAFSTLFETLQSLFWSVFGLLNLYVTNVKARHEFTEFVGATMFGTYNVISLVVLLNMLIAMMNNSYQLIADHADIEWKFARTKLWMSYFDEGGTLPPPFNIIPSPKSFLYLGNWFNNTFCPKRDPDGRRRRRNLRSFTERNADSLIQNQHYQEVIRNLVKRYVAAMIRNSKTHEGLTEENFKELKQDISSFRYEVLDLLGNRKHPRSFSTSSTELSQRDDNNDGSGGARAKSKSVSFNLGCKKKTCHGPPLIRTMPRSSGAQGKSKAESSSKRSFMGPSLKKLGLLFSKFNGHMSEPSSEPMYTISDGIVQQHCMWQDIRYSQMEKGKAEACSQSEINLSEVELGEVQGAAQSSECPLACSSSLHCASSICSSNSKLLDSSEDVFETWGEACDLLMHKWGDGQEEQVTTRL

RXF 393 = test: Growth inhibition of human RXF 393 cells assessed as inhibition of cell growth; format: functional
[4] = Plasma concentration in mouse at 100 mg/kg, po by LC-MS/MS analysis; format: ADME, organism-based; settings: in vivo
[5] = biological target: T1, Short transient receptor potential channel 4 (Homo sapiens); test: Agonist activity at human TRPC4 stably expressed in T-REx-293 cells assessed as increase in calcium flux at 10 uM by Fura-2AM dye based fluorescence plate reader assay relative to control; format: cell-based
[6] = biological target: T3, Short transient receptor potential channel 5 (Homo sapiens) (UniProt Q9UL62); test: Agonist activity at human TRPC5 stably expressed in T-REx-293 cells assessed as increase in calcium flux at 10 uM by Fura-2AM dye based fluorescence plate reader assay; format: cell-based; settings: filed as agonist
T3 sequence (whole entry): T2 sequence (Q9UL62 whole entry)

SMILES | Activity [1] | GI50 (A498) [nM] | GI50 (UO-31) [nM] | MTD at 24 h [2] [mg/kg] | EC50 [3] [nM] | GI50 (RXF 393) [nM] | Cp [4] [ng/mL] | Activity [5] [%] | Activity [6]
CC(=O)OCC(=O)O[C@@H]1C[C@]2(C(C)C)O[C@@]1(C)[C@@H]1CC[C@@H](C)[C@H]1[C@@H]2OC(=O)/C=C/c1ccccc1 | Active | 40 | 34 | 0.2 | 480 | 209 | – | – | –
CC(C)[C@@]12C[C@@H](OC(=O)[C@H]3CO3)[C@@](C)(O1)[C@@H]1CC[C@@H](C)[C@H]1[C@@H]2OC(=O)/C=C/c1ccccc1 | – | 224 | 204 | – | – | 170 | – | – | –
CC(C)[C@@]12C[C@@H](OC(=O)[C@@H]3CO3)[C@@](C)(O1)[C@@H]1CC[C@@H](C)[C@H]1[C@@H]2OC(=O)/C=C/c1ccccc1 | – | 2040 | 1780 | – | – | 7900 | – | – | –
CC(C)[C@@]12C[C@@H](OC(=O)COS(C)(=O)=O)[C@@](C)(O1)[C@@H]1CC[C@@H](C)[C@H]1[C@@H]2OC(=O)/C=C/c1ccccc1 | – | 1300 | 1400 | – | – | 1100 | – | – | –
CC(C)[C@@]12C[C@@H](OC(=O)COC(=O)/C=C/c3ccccc3)[C@@](C)(O1)[C@@H]1CC[C@@H](C)[C@H]1[C@@H]2OC(=O)/C=C/c1ccccc1 | – | 44 | 66 | 1 | – | 138 | 38.7 | – | –
CC(C)[C@@]12C[C@@H](OC(=O)COC(=O)c3ccccc3)[C@@](C)(O1)[C@@H]1CC[C@@H](C)[C@H]1[C@@H]2OC(=O)/C=C/c1ccccc1 | – | 155 | 115 | 0.4 | – | 282 | – | – | –
CC(C)[C@@]12C[C@@H](OC(=O)/C=C/c3ccccc3)[C@@](C)(O1)[C@@H]1CC[C@@H](C)[C@H]1[C@@H]2OC(=O)/C=C/c1ccccc1 | – | > 100000 | > 100000 | – | – | > 100000 | – | – | –
CC(C)=CC(=O)OCC(=O)O[C@@H]1C[C@]2(C(C)C)O[C@@]1(C)[C@@H]1CC[C@@H](C)[C@H]1[C@@H]2OC(=O)/C=C/c1ccccc1 | – | 178 | 240 | 0.4 | 1250 | 380 | 1.5 | 15 | –
CCCCCC(=O)OCC(=O)O[C@@H]1C[C@]2(C(C)C)O[C@@]1(C)[C@@H]1CC[C@@H](C)[C@H]1[C@@H]2OC(=O)/C=C/c1ccccc1 | – | 52 | 41 | 0.4 | – | 126 | – | – | Active
CC(C)[C@@]12C[C@@H](OS(C)(=O)=O)[C@@](C)(O1)[C@@H]1CC[C@@H](C)[C@H]1[C@@H]2OC(=O)/C=C/c1ccccc1 | – | 145 | 389 | – | – | 427 | – | – | –

From ChEMBL document CHEMBL5143752, “Biological Effects of Modifications of the Englerin A Glycolate” (ACS Med Chem Lett, 2022)
